Measurements reported in paper PMC5320518, “Novel Liver-targeted conjugates of Glycogen Phosphorylase Inhibitor PSN-357 for the Treatment of Diabetes: Design, Synthesis, Pharmacokinetic and Pharmacological Evaluations” (Scientific Reports, 2017).
Several values for one entry are separate records, joined by “and”; a condition that tells them apart may be missing. Equal values may be shown once. Where a name gives a salt, the structure may show the parent alone. Read-outs that look alike come from different tables or passages of the source.

Key:
[1] = molecular target: T1, rabbit muscle GPa (RMGPa) (Oryctolagus cuniculus, UniProt P00489); assay: RMGPa inhibition assay (phosphate release from glucose-1-phosphate); format: biochemical; conditions: for IC50: mean ± S.D. of three determinations, NI means no inhibition
T1 sequence (P00489 2-843 limits assumed): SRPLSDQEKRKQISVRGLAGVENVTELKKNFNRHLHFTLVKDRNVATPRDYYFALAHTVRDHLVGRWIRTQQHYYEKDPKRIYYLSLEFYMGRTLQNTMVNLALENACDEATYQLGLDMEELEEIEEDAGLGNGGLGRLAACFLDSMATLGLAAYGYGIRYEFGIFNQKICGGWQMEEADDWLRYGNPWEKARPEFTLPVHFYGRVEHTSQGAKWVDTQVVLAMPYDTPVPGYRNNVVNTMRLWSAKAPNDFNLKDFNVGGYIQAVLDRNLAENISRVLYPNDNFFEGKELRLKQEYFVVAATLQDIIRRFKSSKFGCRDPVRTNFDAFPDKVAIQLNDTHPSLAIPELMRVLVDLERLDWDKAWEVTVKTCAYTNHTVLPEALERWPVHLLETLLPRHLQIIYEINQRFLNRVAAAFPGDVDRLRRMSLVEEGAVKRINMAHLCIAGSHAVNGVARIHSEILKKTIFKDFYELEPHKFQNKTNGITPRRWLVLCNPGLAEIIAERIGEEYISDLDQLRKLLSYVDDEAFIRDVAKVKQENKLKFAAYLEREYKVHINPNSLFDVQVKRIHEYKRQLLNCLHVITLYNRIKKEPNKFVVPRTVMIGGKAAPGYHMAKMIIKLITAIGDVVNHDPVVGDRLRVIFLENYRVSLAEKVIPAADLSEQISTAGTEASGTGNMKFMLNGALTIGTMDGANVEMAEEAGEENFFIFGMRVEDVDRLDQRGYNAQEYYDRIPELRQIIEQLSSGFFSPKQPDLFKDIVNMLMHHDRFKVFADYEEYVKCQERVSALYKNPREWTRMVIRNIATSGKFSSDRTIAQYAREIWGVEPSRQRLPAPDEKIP
Experimental: All the compounds were evaluated for their inhibitory activity against rabbit muscle GPa (RMGPa). The activity of RMGPa was measured through detecting the release of phosphate from glucose-1-phosphate in the direction of glycogen synthesis. CP-91149, a well-known allosteric GP inhibitor, which shares the same binding site with PSN-357, was used as the positive control and the results are summarized in Table 1[21]. […] This remarkable loss of activity was probably due to the direct steric interference by such bulky substituent of cholic acid group. […] The results is consistent with the SARs of PSN-357 that the hydroxyl of piperidine is not an essential group for the GP inhibitory activity that could be modified slightly.
The inhibitory activity of the test compounds against rabbit muscle glycogen phosphorylase a (GPa) was monitored using microplate reader (BIO-RAD) based on the published method. In brief, GPa activity was measured in the direction of glycogen synthesis by the release of phosphate from glucose-1-phosphate. Each test compound was dissolved in DMSO and diluted at different concentrations for IC50 determination. The enzyme was added into 100 μL of buffer containing 50 mM Hepes (pH = 7.2), 100 mM KCl, 2.5 mM MgCl2, 0.5 mM glucose-1-phosphate, 1 mg/mL glycogen and the test compound in 96-well microplates (Costar). After the addition of 150 μL of 1 M HCl containing 10 mg/mL ammonium molybdate and 0.38 mg/mL malachite green, reactions were run at 22 °C for 25 min, and then the phosphate absorbance was measured at 655 nm. The IC50 values were estimated by fitting the inhibition data to a dose-dependent curve using a logistic derivative equation.

HepG2 cells = assay: Glycogenolysis inhibition in HepG2 cells; format: cell-based, human; conditions: read-out: IC50 (glycogenolysis inhibition, HepG2 cells)
From the text: (§1) To evaluate the effects of all compounds in cells, the glycogenolysis assays were established in both rat and human liver cells based on the published method. […] The inhibitory activities of the derivatives of PSN-357 (e.g. 25–28) were also explored. It is not surprising that the derivatives still retained micromolar inhibitory activities. Introduction of steric bulks to the hydroxyl group (e.g. 33, 40, 42, 48) led to a complete loss of activity. Data analysis indicated no clear SAR for the substitutents in the cell-based assays.
(§2) The inhibition of hepatic glycogenolysis was monitored by the measurement of liver glycogen, which was done quantitatively by the anthrone reagent (Sigma) colorimetric method based on the published method. Isolated rat hepatocytes or HepG2 cells (Sigma) were treated with the test compound or DMSO solvent (final concentration, 0.10%), followed by 60-min incubation with 0.3 nM glucagon (GGN). Assays were terminated by centrifugation, and cells were digested with 30% KOH followed by glycogen determination. The IC50 values were estimated by fitting the inhibition data to a dose-dependent curve using a logistic derivative equation.

isolated rat hepatocytes = assay: Glycogenolysis inhibition in isolated rat hepatocytes; format: cell-based; conditions: mean ± S.D. of three, NI means no inhibition
From the text: as §1, §2

[2] = Stability in simulated gastric fluid (SGF); format: in vitro ADME; conditions: SGF pH 1.21 with pepsin, 2 μM, 37 °C
Experimental: (§3) All the conjugates were tested for their chemical and metabolic stability in multiple assays, including simulated gastric fluid (SGF), simulated interstinal fluid (SIF), mouse plasma, and mouse liver microsome (MLM).
(§4) For the stability in SGF (Fig. 8) and SIF (Fig. 9), the conjugates could be divided into three groups: (1) stable conjugates 2, 6 and 9. […] The two conjugates were degraded within 6 h and 1 h in SGF and SIF, respectively, with alomost no conjugates at the end of the 24 h incubation in both SGF and SIF; (3) complicated conjugates 3, 4, 5 and 8.
(§5) The simulated gastrointestinal fluids were prepared according to USP specifications. For SGF, NaCl (0.12 g) and pepsin (0.18 g, from porcine stomach mucosa) was dissolved in HCl (0.42 mL) and sufficient H2O was added to make 60 mL. The pH of the test solution was determined as 1.21 by pH meter. For the SIF, KH2PO4 (0.408 g) and pancreatin (0.6 g, from porcine pancreas) was dissolved in H2O (60 mL). The pH of the test solution was determined as 6.79 by pH meter. Each test compound was dissolved in DMSO and diluted to a final concentration of 2 μM in SIF and SGF. The final concentrations of DMSO and CH3CN in the incubation mixture were 0.2% and 0.45%. Aliquots of these solutions were pipetted into glass tubes, and placed in a 37 °C shaking water bath. Test samples at corresponding time point (1, 2, 6, 24 h) were removed at the end of incubation time and immediately mixed with 800 μL of cold acetonitrile containing 500 ng/mL tolbutamide (internal standard). Samples were subjected to centrifuge at 4000 rpm, 4 °C for 20 min. Aliquots 60 μL of supernatant was combined with 120 μL water for LC-MS/MS analysis.

[3] = Stability in mouse liver microsomes (MLM); format: in vitro ADME; conditions: C57BL/6, pH 7.4, n = 3
Experimental: Additionally, the compounds’ stability in microsome were evaluated by measuring the rate of compounds consumpation in MLM and the results are shown in Table 3.
The microsomal pellet was suspended in potassium phosphate buffer (100 mM, pH 7.4), 10 μM test compound or positive control (diclofenac) was added. Liver microsomes from C57BL/6 mice (BD Gentest) were pooled. The mixture of microsome solution and compound was incubated at 37 °C for about 10 min in the presence of a NADPH-regenerating system, consisting of 0.02 M DL-isocitric acid (trisodium salt), 0.1 mg/mL isocitrate dehydrogenase and 1 mM NADPH. The addition of ice-cold CH3CN (including 100 ng/mL tolbutamide as internal standard) terminated the reaction. The mixture was vortexed for approx (30 s), centrifuged (20 min, 4000 rpm) and the supernatant was collected and analysed by LC-MS/MS method.

[4] = Stability in simulated intestinal fluid (SIF); format: in vitro ADME; conditions: SIF pH 6.79 with pancreatin, 2 μM, 37 °C
Experimental: as §3, §4, §5

[5] = Homo sapiens, HepG2, 1 h, HepG2 cells, 60-min incubation with 0.3 nM glucagon, mean ± S.D. of three, NI means no inhibition
[6] = Hepatocyte, 1 h, isolated rat hepatocytes, 60-min incubation with 0.3 nM glucagon, read-out: IC50 (glycogenolysis inhibition, rat hepatocytes)
[7] = Rattus norvegicus, Hepatocyte, 1 h, read-out: IC50 (glycogenolysis inhibition, rat hepatocytes), isolated rat hepatocytes, 60-min incubation with 0.3 nM glucagon

| Compound | melting point | IC50 [1] | IC50 (HepG2 cells; [5]) | IC50 (isolated rat hepatocytes; [6]) | other results |
| --- | --- | --- | --- | --- | --- |
| CC(C)[C@H](N)C(=O)OC1CCN(C(=O)[C@H](Cc2ccc(F)cc2)NC(=O)c2cc3cc(Cl)ncc3[nH]2)CC1 (as salt: hydrochloride) [Compound 27] | 214 to 216 °C | – | – | – | – |
| CN(C)C(=O)[C@H](O)[C@H](Cc1ccccc1)NC(=O)c1cc2cc(Cl)ccc2[nH]1 [CP-91149, reference compound] | – | 0.09 ± 0.04 µM | – | – | IC50 (HepG2 cells; HepG2 cells, 60-min incubation with 0.3 nM glucagon, mean ± S.D. of three, NI means no inhibition): 2.53 ± 0.78 µM; IC50 (isolated rat hepatocytes; isolated rat hepatocytes, 60-min incubation with 0.3 nM glucagon, read-out: IC50 (glycogenolysis inhibition, rat hepatocytes)): 3.08 ± 1.16 µM |
| CC(C)(C)OC(=O)C[C@H](NC(=O)OC(C)(C)C)C(=O)OC1CCN(C(=O)[C@H](Cc2ccc(F)cc2)NC(=O)c2cc3cc(Cl)ncc3[nH]2)CC1 [Compound 25] | 118 to 120 °C | 0.81 ± 0.077 µM | 15.1 ± 4.11 µM | 10.2 ± 1.13 µM | – |
| C[C@H](N)C(=O)OC1CCN(C(=O)[C@H](Cc2ccc(F)cc2)NC(=O)c2cc3cc(Cl)ncc3[nH]2)CC1 [Compound 26] | – | 0.56 ± 0.043 µM | 6.99 ± 2.1 µM | 9.79 ± 9.65 µM | – |
| CC(C)[C@H](N)C(=O)OC1CCN(C(=O)[C@H](Cc2ccc(F)cc2)NC(=O)c2cc3cc(Cl)ncc3[nH]2)CC1 [Compound 27] | – | 0.88 ± 0.17 µM | 16.8 ± 3.71 µM | 14.7 ± 4.99 µM | – |
| N[C@@H](CO)C(=O)OC1CCN(C(=O)[C@H](Cc2ccc(F)cc2)NC(=O)c2cc3cc(Cl)ncc3[nH]2)CC1 [Compound 28] | – | 0.52 ± 0.01 µM | 2.88 ± 0.16 µM | 13.6 ± 0.23 µM | fold less potent than PSN-357 (RMGPa) ([1]; vs PSN-357): approximately 1.25 fold |
| CC(C)[C@H](NC(=O)OC(C)(C)C)C(=O)N[C@@H](C)C(=O)OC1CCN(C(=O)[C@H](Cc2ccc(F)cc2)NC(=O)c2cc3cc(Cl)ncc3[nH]2)CC1 [Compound 33] | 151 to 153 °C | 27 ± 6.39 µM | – | 11.1 ± 3.67 µM | – |
| CC(C)(C)OC(=O)N[C@@H](Cc1ccccc1)C(=O)N[C@@H](CCCCNC(=O)OCC1c2ccccc2-c2ccccc21)C(=O)OC1CCN(C(=O)[C@H](Cc2ccc(F)cc2)NC(=O)c2cc3cc(Cl)ncc3[nH]2)CC1 [Compound 40] | – | 3.44 ± 0.22 µM | 33.6 ± 12.2 µM | 38.4 ± 5.76 µM | – |
| CC(CCC(=O)NC(Cc1ccccc1)C(=O)NC(CCCCNC(=O)OCC1c2ccccc2-c2ccccc21)C(=O)OC1CCN(C(=O)C(Cc2ccc(F)cc2)NC(=O)c2cc3cc(Cl)ncc3[nH]2)CC1)C1CCC2C3C(O)CC4CC(O)CCC4(C)C3CC(O)C12C (stereo not shown) [Compound 42] | 149 to 151 °C | 15.4 ± 0.89 µM | – | 5.56 ± 2.41 µM | IC50 (HepG2 cells; Homo sapiens, HepG2, 1 h): 180 ± 51.2 µM |
| CC(C)(C)OC(=O)c1ccc(/N=N/c2ccccc2CCC(=O)OC2CCN(C(=O)[C@H](Cc3ccc(F)cc3)NC(=O)c3cc4cc(Cl)ncc4[nH]3)CC2)cc1 [Compound 47] | 123 to 125 °C | – | – | 97.6 ± 1.1 µM | – |
| O=C(CCc1ccccc1/N=N/c1ccc(C(=O)O)cc1)OC1CCN(C(=O)[C@H](Cc2ccc(F)cc2)NC(=O)c2cc3cc(Cl)ncc3[nH]2)CC1 [Compound 48] | 127 to 129 °C | 3.11 ± 0.05 µM | 9.18 ± 7.42 µM | 35 ± 3.46 µM | – |
| C[C@H](CCC(=O)NCC(=O)OC1CCN(C(=O)[C@H](Cc2ccc(F)cc2)NC(=O)c2cc3cc(Cl)ncc3[nH]2)CC1)[C@H]1CC[C@H]2[C@@H]3[C@H](O)C[C@@H]4C[C@H](O)CC[C@]4(C)[C@H]3C[C@H](O)[C@]12C [Conjugate 1] | – | 5.9 µM and 5.94 µM | 203 ± 3.39 µM | – | time within which degraded in SGF [2]: ≤ 6 h; CLint scaled at 10 μM [3]: 172 mL/min/kg; half-life at 10 μM [3]: 31.9 min; microsomal CLint at 10 μM [3]: 43.4 µL/min/mg; time within which degraded in SIF [4]: ≤ 1 h; IC50 (isolated rat hepatocytes; [7]): 41.1 ± 5.11 µM |
| C[C@H](NC(=O)CC[C@@H](C)[C@H]1CC[C@H]2[C@@H]3[C@H](O)C[C@@H]4C[C@H](O)CC[C@]4(C)[C@H]3C[C@H](O)[C@]12C)C(=O)OC1CCN(C(=O)[C@H](Cc2ccc(F)cc2)NC(=O)c2cc3cc(Cl)ncc3[nH]2)CC1 [Conjugate 3] | – | 40.5 ± 15.7 µM | – | – | stability in SGF (in words) ([2]; 24 h incubation): relatively stable; CLint scaled at 10 μM [3]: 200 mL/min/kg; half-life at 10 μM [3]: 27.4 min; microsomal CLint at 10 μM [3]: 50.6 µL/min/mg; time within which degraded in SIF [4]: ≤ 1 h; IC50 (isolated rat hepatocytes; [7]): 632 ± 99.4 µM |
| O=C(O)Cc1ccccc1Nc1c(Cl)cccc1Cl [Diclofenac, diclofenac, reference compound] | – | – | – | – | CLint scaled at 10 μM [3]: 208 mL/min/kg; half-life at 10 μM [3]: 26.3 min; microsomal CLint at 10 μM [3]: 52.6 µL/min/mg |
